Target: human recombinant H-PGDS (Homo sapiens, UniProt O60760)
Assay: Fluorescence Intensity h-PGDS TBA Enzyme Assay
Assay type: biochemical
Settings: 1:175,000 human recombinant H-PGDS, highest inhibitor concentration typically 1 μM
Outline: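 Readout is PGH2 depletion: after a 42 s reaction with 5.0 μM PGH2 and 2.5 mM glutathione (pH 8.0 Tris, 10 min inhibitor preincubation), Fe(II) converts leftover PGH2 to MDA, which forms a fluorescent TBA complex. IC50s come from 11-point, 3-fold duplicate curves, 4-parameter fit.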

Chain of human recombinant H-PGDS (O60760 whole entry): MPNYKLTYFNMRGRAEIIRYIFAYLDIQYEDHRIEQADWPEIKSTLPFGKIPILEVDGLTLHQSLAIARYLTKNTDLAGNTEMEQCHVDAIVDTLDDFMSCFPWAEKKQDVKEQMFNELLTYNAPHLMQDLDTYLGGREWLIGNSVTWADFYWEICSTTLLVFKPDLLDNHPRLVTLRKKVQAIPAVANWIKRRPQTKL

Row | Structure (SMILES) | IC50
1 | COc1ccc(C(CNC(=O)c2ccc(-c3cccc(C)c3)nc2)N2CCOCC2)cc1 (stereo not shown) [Example 315, N-[2-(4-Methoxyphenyl)-2-morpholin-4-ylethyl]-6-(3-methylphenyl)nicotinamide] | 72.5 nM
2 | COc1cccc(-c2ccc(C(=O)NCc3ccc(S(C)(=O)=O)cc3)cn2)c1 [Example 316, 6-(3-Methoxyphenyl)-N-[4-(methylsulfonyl)benzyl] nicotinamide] | 382 nM
3 | CNS(=O)(=O)c1ccc(CNC(=O)c2ccc(-c3cccc(OC)c3)nc2)cc1 [Example 317, 6-(3-Methoxyphenyl)-N-{4-[(methylamino)sulfonyl]benzyl}nicotinamide] | 153 nM
4 | Cc1cccc(-c2ccc(C(=O)NC(C)c3ccncn3)cn2)c1 (stereo not shown) [Example 319, 6-(3-Methylphenyl)-N-(1-pyrimidin-4-ylethyl)nicotinamide] | 140 nM
5 | Cc1cccc(-c2ccc(C(=O)NCCC3CCCCO3)cn2)c1 (stereo not shown) [Example 320, 6-(3-Methylphenyl)-N-[2-(tetrahydro-2H-pyran-2-yl)ethyl]nicotinamide] | 17.4 nM
6 | Cc1cccc(-c2ccc(C(=O)NCCc3cccs3)cn2)c1 [Example 321, 6-(3-Methylphenyl)-N-[2-(2-thienyl)ethyl]nicotinamide] | 84.5 nM
7 | CS(=O)(=O)Cc1noc(CNC(=O)c2ccc(-c3ccc(F)cc3)nc2)n1 [Example 322, 6-(4-Fluorophenyl)-N-({3-[(methylsulfonyl)methyl]-1,2,4-oxadiazol-5-yl}methyl)nicotinamide] | ≥ 1000 nM
8 | COC(=O)CC(NC(=O)c1ccc(-c2ccc(F)cc2)nc1)c1cccnc1 (stereo not shown) [Example 323, Methyl 3-({[6-(4-fluorophenyl)pyridin-3-yl]carbonyl}amino)-3-pyridin-3-ylpropanoate] | ≥ 1000 nM
9 | O=C(NCCN1CCCCC1)c1ccc(-c2ccc(F)cc2)nc1 [Example 324, 6-(4-Fluorophenyl)-N-(2-piperidin-1-ylethyl)nicotinamide] | ≥ 1000 nM
10 | CN(C)C(=O)CNC(=O)c1ccc(-c2ccc(F)cc2)nc1 [Example 325, N-[2-(Dimethylamino)-2-oxoethyl]-6-(4-fluorophenyl)nicotinamide] | ≥ 1000 nM
11 | CCCCNC(=O)c1ccc(-c2ccc(F)cc2)nc1 [Example 326, N-Butyl-6-(4-fluorophenyl)nicotinamide] | 414 nM
12 | O=C(NCCCN1CCCC1=O)c1ccc(-c2ccc(F)cc2)nc1 [Example 327, 6-(4-Fluorophenyl)-N-[3-(2-oxopyrrolidin-1-yl)propyl]nicotinamide] | 597 nM
13 | O=C(Nc1cccnc1)c1ccc(-c2ccc(F)cc2)nc1 [Example 328, 6-(4-Fluorophenyl)-N-pyridin-3-ylnicotinamide] | 92 nM
14 | O=C(NCc1ccc(-n2cncn2)cc1)c1ccc(-c2ccc(F)cc2)nc1 [Example 329, 6-(4-Fluorophenyl)-N-[4-(1H-1,2,4-triazol-1-yl)benzyl]nicotinamide] | 552 nM
15 | CCOC(=O)CCCNC(=O)c1ccc(-c2ccc(F)cc2)nc1 [Example 330, Ethyl 4-({[6-(4-fluorophenyl)pyridin-3-yl]carbonyl}amino)butanoate] | 507 nM
16 | CCOC(=O)C(CNC(=O)c1ccc(-c2cccc(OC)c2)nc1)c1c(F)cccc1F (stereo not shown) [Example 331, Ethyl 2-(2,6-difluorophenyl)-3-({[6-(3-methoxyphenyl)pyridin-3-yl]carbonyl}amino) propanoate] | 234 nM
17 | COc1cccc(-c2ccc(C(=O)NCCN3CCOCC3)cn2)c1 [Example 332, 6-(3-Methoxyphenyl)-N-(2-morpholin-4-ylethyl)nicotinamide] | 326 nM
18 | COc1cccc(-c2ccc(C(=O)NCc3ccccc3C)cn2)c1 [Example 333, 6-(3-Methoxyphenyl)-N-(2-methylbenzyl)nicotinamide] | 77.1 nM
19 | CCOC(=O)CC(NC(=O)c1ccc(-c2cccc(OC)c2)nc1)c1ccc(Cl)cc1 (stereo not shown) [Example 334, Ethyl 3-(4-chlorophenyl)-3-({[6-(3-methoxyphenyl)pyridin-3-yl]cabonyl}amino)propanoate] | ≥ 1000 nM
20 | COC(=O)CCNC(=O)c1ccc(-c2cccc(OC)c2)nc1 [Example 335, Methyl N-{[6-(3-methoxyphenyl)pyridin-3-yl]carbonyl}-beta-alaninate] | 352 nM
21 | COc1cccc(-c2ccc(C(=O)Nc3ccncc3)cn2)c1 [Example 336, 6-(3-Methoxyphenyl)-N-pyridin-4-ylnicotinamide] | 87.3 nM
22 | COC(=O)CC(NC(=O)c1ccc(-c2cccc(OC)c2)nc1)c1cccnc1 (stereo not shown) [Example 337, Methyl 3-({[6-(3-methoxyphenyl)pyridin-3-yl]carbonyl}amino)-3-pyridin-3-ylpropanoate] | 396 nM
23 | COc1cccc(-c2ccc(C(=O)NCC(C)C)cn2)c1 [Example 338, N-isobutyl-6-(3-methoxyphenyl)nicotinamide] | 298 nM
24 | COc1cccc(-c2ccc(C(=O)NC(C)c3ccccc3)cn2)c1 (stereo not shown) [Example 339, 6-(3-Methoxyphenyl)-N-(1-phenylethyl)nicotinamide] | 266 nM
25 | COC(=O)[C@H](C)NC(=O)c1ccc(-c2cccc(OC)c2)nc1 [Example 340, Methyl N-{[6-(3-methoxyphenyl)pyridin-3-yl]carbonyl}alaninate] | ≥ 1000 nM

Row | Structure (SMILES) | IC50
26 | COc1cccc(-c2ccc(C(=O)NCc3ccccc3)cn2)c1 [Example 341, N-Benzyl-6-(3-methoxyphenyl)nicotinamide] | 131 nM
27 | COc1cccc(-c2ccc(C(=O)NCC(C)(C)CN(C)C)cn2)c1 [Example 342, N-[3-(Dimethylamino)-2,2-dimethylpropyl]-6-(3-methoxyphenyl)nicotinamide] | ≥ 1000 nM
28 | COc1cccc(-c2ccc(C(=O)NCC(=O)N(C)C)cn2)c1 [Example 343, N-[2-(Dimethylamino)-2-oxoethyl]-6-(3-methoxyphenyl)nicotinamide] | 975 nM
29 | COC(=O)c1ccc(CNC(=O)c2ccc(-c3cccc(OC)c3)nc2)cc1 [Example 344, Methyl 4-[({[6-(3-methoxyphenyl)pyridin-3-yl]carbonyl}amino)methyl] benzoate] | 159 nM
30 | COc1cccc(-c2ccc(C(=O)NCCc3ccncc3)cn2)c1 [Example 345, 6-(3-Methoxyphenyl)-N-(2-pyridin-4-ylethyl)nicotinamide] | 308 nM
31 | O=C(NCc1cccc(F)c1)c1ccc(-c2ccccc2)nc1 [Example 346, N-(3-Fluorobenzyl)-6-phenylnicotinamide] | 4.07 nM
32 | O=C(NCc1ccccc1)c1ccc(-c2ccccc2)nc1 [Example 347, N-Benzyl-6-phenylnicotinamide] | 4.3 nM
33 | COC(=O)CNC(=O)[C@H](C)NC(=O)c1ccc(-c2ccccc2)nc1 [Example 348, Methyl N-[(6-phenylpyridin-3-yl)carbonyl]-L-alanylglycinate] | 24.6 nM
34 | COC(=O)[C@H](C)NC(=O)c1ccc(-c2ccccc2)nc1 [Example 349, Methyl N-[(6-phenylpyridin-3-yl)carbonyl]alaninate] | 47 nM
35 | O=C(NCCCN1CCCC1=O)c1ccc(-c2ccccc2)nc1 [Example 350, N-[3-(2-Oxopyrrolidin-1-yl)propyl]-6-phenylnicotinamide] | 6.8 nM
36 | O=C(NCCN1CCCC1=O)c1ccc(-c2ccccc2)nc1 [Example 351, N-[2-(2-Oxopyrrolidin-1-yl)ethyl]-6-phenylnicotinamide] | 25.4 nM
37 | CN(C)CC(C)(C)CNC(=O)c1ccc(-c2ccccc2)nc1 [Example 352, N-[3-(Dimethylamino)-2,2-dimethylpropyl]-6-phenylnicotinamide] | 458 nM
38 | CC(C)(CNC(=O)c1ccc(-c2ccccc2)nc1)N1CCOCC1 [Example 353, N-(2-Methyl-2-morpholin-4-ylpropyl)-6-phenylnicotinamide] | 25.3 nM
39 | O=C(Nc1cccnc1)c1ccc(-c2ccccc2)nc1 [Example 354, 6-Phenyl-N-pyridin-3-ylnicotinamide] | 1.66 nM
40 | CCOC(=O)C(CNC(=O)c1ccc(-c2ccccc2)nc1)c1c(F)cccc1F (stereo not shown) [Example 355, Ethyl 2-(2,6-difluorophenyl)-3-{[(6-phenylpyridin-3-yl)carbonyl]amino}propanoate] | 138 nM
41 | O=C(NCCc1ccncc1)c1ccc(-c2ccccc2)nc1 [Example 356, 6-Phenyl-N-(2-pyridin-4-ylethyl)nicotinamide] | 11.6 nM
42 | O=C(NCc1cc(F)cc2c1OCOC2)c1ccc(-c2ccccc2)nc1 [Example 357, N-[(6-Fluoro-4H-1,3-benzodioxin-8-yl)methyl]-6-phenylnicotinamide] | 1.73 nM
43 | O=C(NCCN1CCCC1)c1ccc(-c2ccccc2)nc1 [Example 358, 6-Phenyl-N-(2-pyrrolidin-1-ylethyl)nicotinamide] | 199 nM
44 | O=C(NCCN1CCOC1=O)c1ccc(-c2ccccc2)nc1 [Example 359, N-[2-(2-Oxo-1,3-oxazolidin-3-yl)ethyl]-6-phenylnicotinamide] | 37.1 nM
45 | O=C(NCCC1CCC(=O)N1CCN1CCNC1=O)c1ccc(-c2ccccc2)nc1 (stereo not shown) [Example 360, N-(2-{5-Oxo-1-[2-(2-oxoimidazolidin-1-yl)ethyl]pyrrolidin-2-yl}ethyl)-6-phenylnicotinamide] | 10.3 nM
46 | O=C(NCCN1CCCCC1)c1ccc(-c2ccccc2)nc1 [Example 361, 6-Phenyl-N-(2-piperidin-1-ylethyl)nicotinamide] | 11.8 nM
47 | CCOC(=O)CC(NC(=O)c1ccc(-c2ccccc2)nc1)c1ccc(OC)cc1 (stereo not shown) [Example 362, Ethyl 3-(4-methoxyphenyl)-3-{[(6-phenylpyridin-3-yl)carbonyl]amino}propanoate] | 12 nM
48 | O=C(NCCc1cccs1)c1ccc(-c2ccccc2)nc1 [Example 363, 6-Phenyl-N-[2-(2-thienyl)ethyl]nicotinamide] | 5.1 nM
49 | NC(CC(=O)NC(=O)c1ccc(-c2ccccc2)nc1)C1CC1 (stereo not shown) [Example 364, N-(3-Amino-3-cyclopropylpropanoyl)-6-phenylnicotinamide] | 39.3 nM

Reference: US20110306597A1, “Nicotinamide Derivatives” (priority 2008, published 2011)
